What was measured:
Test in all cases: Off-target kinase profiling (KinaseProfiler)
Format in all cases: biochemical
Settings in all cases: 10 μM, ATP near Km
ROCK-II = biological target: T1, ROCK-II (Homo sapiens, UniProt O75116)
T1 construct: purchased Millipore, Inc. (KinaseProfiler service)
Outline: (§1)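 Compound was tested once at 10 μM against the panel. Each kinase reaction used ATP near its own Km, and duplicates were averaged to give POC.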

MLK1 = biological target: T2, MLK1 (Homo sapiens, UniProt P80192)
T2 construct: purchased Millipore, Inc. (KinaseProfiler service)
Outline: as §1

NEK7 = biological target: T3, NEK7 (Homo sapiens, UniProt Q8TDX7)
T3 construct: purchased Millipore, Inc. (KinaseProfiler service)
Outline: as §1

EphA7 = biological target: T4, EphA7 (Rattus norvegicus, UniProt P54759)
T4 construct: purchased Millipore, Inc. (KinaseProfiler service)
Outline: as §1

AMPK(A1/B1/G1) = biological target: T5, AMPK(A1/B1/G1) (Homo sapiens, UniProt Q13131)
T5 construct: purchased Millipore, Inc. (KinaseProfiler service)
Outline: as §1

Fer = biological target: T6, Fer (Homo sapiens, UniProt P16591)
T6 construct: purchased Millipore, Inc. (KinaseProfiler service)
Outline: as §1

MELK = biological target: T7, MELK (Homo sapiens, UniProt Q14680)
T7 construct: purchased Millipore, Inc. (KinaseProfiler service)
Outline: as §1

PDK1 = biological target: T8, PDK1 (Homo sapiens, UniProt O15530)
T8 construct: purchased Millipore, Inc. (KinaseProfiler service)
Outline: as §1

PTK6 = biological target: T9, PTK6 (Homo sapiens, UniProt Q13882)
T9 construct: purchased Millipore, Inc. (KinaseProfiler service)
Outline: as §1

HIPK1 = biological target: T10, HIPK1 (Homo sapiens, UniProt Q86Z02)
T10 construct: purchased Millipore, Inc. (KinaseProfiler service)
Outline: as §1

FGFR1 = biological target: T11, FGFR1 (Homo sapiens, UniProt P11362)
T11 construct: purchased Millipore, Inc. (KinaseProfiler service)
Outline: as §1

TAK1 = biological target: T12, TAK1 (Homo sapiens, UniProt O43318)
T12 construct: purchased Millipore, Inc. (KinaseProfiler service)
Outline: as §1

MAP3K5 = biological target: T13, MAP3K5 (Homo sapiens, UniProt Q99683)
T13 construct: purchased Millipore, Inc. (KinaseProfiler service)
Outline: as §1

ALK = biological target: T14, ALK (Homo sapiens, UniProt Q9UM73)
T14 construct: purchased Millipore, Inc. (KinaseProfiler service)
Outline: as §1

KIT = biological target: T15, KIT (Homo sapiens, UniProt P10721)
T15 construct: purchased Millipore, Inc. (KinaseProfiler service)
Outline: as §1

VRK2 = biological target: T16, VRK2 (Homo sapiens, UniProt Q86Y07)
T16 construct: purchased Millipore, Inc. (KinaseProfiler service)
Outline: as §1

PKCzeta = biological target: T17, PKCzeta (Homo sapiens, UniProt Q05513)
T17 construct: purchased Millipore, Inc. (KinaseProfiler service)
Outline: as §1

PKCdelta = biological target: T18, PKCdelta (Homo sapiens, UniProt Q05655)
T18 construct: purchased Millipore, Inc. (KinaseProfiler service)
Outline: as §1

IRAK1 = biological target: T19, IRAK1 (Homo sapiens, UniProt P51617)
T19 construct: purchased Millipore, Inc. (KinaseProfiler service)
Outline: as §1

ZAP-70 = biological target: T20, ZAP-70 (Homo sapiens, UniProt P43403)
T20 construct: purchased Millipore, Inc. (KinaseProfiler service)
Outline: as §1

MST2 = biological target: T21, MST2 (Homo sapiens, UniProt Q13188)
T21 construct: purchased Millipore, Inc. (KinaseProfiler service)
Outline: as §1

Plk2 = biological target: T22, Plk2 (Homo sapiens, UniProt Q9NYY3)
T22 construct: purchased Millipore, Inc. (KinaseProfiler service)
Outline: as §1

NLK = biological target: T23, NLK (Homo sapiens, UniProt Q9UBE8)
T23 construct: purchased Millipore, Inc. (KinaseProfiler service)
Outline: as §1

PKCgamma = biological target: T24, PKCgamma (Homo sapiens, UniProt P05129)
T24 construct: purchased Millipore, Inc. (KinaseProfiler service)
Outline: as §1

Rse = biological target: T25, Rse (Homo sapiens, UniProt Q06418)
T25 construct: purchased Millipore, Inc. (KinaseProfiler service)
Outline: as §1

Rsk4 = biological target: T26, Rsk4 (Homo sapiens, UniProt Q9UK32)
T26 construct: purchased Millipore, Inc. (KinaseProfiler service)
Outline: as §1

ErbB4 = biological target: T27, ErbB4 (Homo sapiens, UniProt Q15303)
T27 construct: purchased Millipore, Inc. (KinaseProfiler service)
Outline: as §1

DAPK3 = biological target: T28, DAPK3 (Homo sapiens, UniProt O43293)
T28 construct: purchased Millipore, Inc. (KinaseProfiler service)
Outline: as §1

MAPKAP-K2 = biological target: T29, MAPKAP-K2 (Homo sapiens, UniProt P49137)
T29 construct: purchased Millipore, Inc. (KinaseProfiler service)
Outline: as §1

Haspin = biological target: T30, Haspin (Homo sapiens, UniProt Q8TF76)
T30 construct: purchased Millipore, Inc. (KinaseProfiler service)
Outline: as §1

IR Activated = biological target: T31, IR Activated (Homo sapiens, UniProt P06213)
T31 construct: purchased Millipore, Inc. (KinaseProfiler service)
Outline: as §1

Lyn = biological target: T32, Lyn (Homo sapiens, UniProt P07948)
T32 construct: purchased Millipore, Inc. (KinaseProfiler service)
Outline: as §1

T20 sequence (P43403 whole entry): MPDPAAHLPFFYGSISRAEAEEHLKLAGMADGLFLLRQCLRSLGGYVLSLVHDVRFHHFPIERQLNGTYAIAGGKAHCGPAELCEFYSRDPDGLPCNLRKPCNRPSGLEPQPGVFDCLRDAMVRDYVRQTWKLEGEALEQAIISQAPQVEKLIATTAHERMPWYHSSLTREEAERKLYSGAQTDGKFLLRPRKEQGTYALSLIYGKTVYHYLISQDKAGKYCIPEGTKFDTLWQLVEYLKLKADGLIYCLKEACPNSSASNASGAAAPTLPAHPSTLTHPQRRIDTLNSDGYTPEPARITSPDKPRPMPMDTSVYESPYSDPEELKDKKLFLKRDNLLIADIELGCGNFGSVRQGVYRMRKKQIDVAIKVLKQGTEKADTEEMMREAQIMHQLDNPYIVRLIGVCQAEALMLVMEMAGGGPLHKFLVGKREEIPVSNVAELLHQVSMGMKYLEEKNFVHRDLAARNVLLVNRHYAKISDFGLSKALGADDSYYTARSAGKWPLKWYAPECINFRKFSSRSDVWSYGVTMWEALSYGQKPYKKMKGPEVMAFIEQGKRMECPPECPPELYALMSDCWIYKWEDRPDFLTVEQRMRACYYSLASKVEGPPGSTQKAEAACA
T16 sequence (Q86Y07 whole entry): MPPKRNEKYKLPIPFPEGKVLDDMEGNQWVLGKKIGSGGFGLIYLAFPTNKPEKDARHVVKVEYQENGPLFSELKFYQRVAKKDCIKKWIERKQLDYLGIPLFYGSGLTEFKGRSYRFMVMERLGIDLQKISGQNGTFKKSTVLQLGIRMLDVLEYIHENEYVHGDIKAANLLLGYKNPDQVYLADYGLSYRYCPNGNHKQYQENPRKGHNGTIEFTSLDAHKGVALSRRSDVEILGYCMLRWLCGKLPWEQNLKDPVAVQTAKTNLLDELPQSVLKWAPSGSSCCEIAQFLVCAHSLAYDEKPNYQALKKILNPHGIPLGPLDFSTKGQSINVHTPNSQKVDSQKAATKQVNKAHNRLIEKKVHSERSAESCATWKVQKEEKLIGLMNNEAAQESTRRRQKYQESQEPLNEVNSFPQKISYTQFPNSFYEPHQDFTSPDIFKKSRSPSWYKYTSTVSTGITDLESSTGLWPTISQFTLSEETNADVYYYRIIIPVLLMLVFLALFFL
T27 sequence (Q15303 26-1308): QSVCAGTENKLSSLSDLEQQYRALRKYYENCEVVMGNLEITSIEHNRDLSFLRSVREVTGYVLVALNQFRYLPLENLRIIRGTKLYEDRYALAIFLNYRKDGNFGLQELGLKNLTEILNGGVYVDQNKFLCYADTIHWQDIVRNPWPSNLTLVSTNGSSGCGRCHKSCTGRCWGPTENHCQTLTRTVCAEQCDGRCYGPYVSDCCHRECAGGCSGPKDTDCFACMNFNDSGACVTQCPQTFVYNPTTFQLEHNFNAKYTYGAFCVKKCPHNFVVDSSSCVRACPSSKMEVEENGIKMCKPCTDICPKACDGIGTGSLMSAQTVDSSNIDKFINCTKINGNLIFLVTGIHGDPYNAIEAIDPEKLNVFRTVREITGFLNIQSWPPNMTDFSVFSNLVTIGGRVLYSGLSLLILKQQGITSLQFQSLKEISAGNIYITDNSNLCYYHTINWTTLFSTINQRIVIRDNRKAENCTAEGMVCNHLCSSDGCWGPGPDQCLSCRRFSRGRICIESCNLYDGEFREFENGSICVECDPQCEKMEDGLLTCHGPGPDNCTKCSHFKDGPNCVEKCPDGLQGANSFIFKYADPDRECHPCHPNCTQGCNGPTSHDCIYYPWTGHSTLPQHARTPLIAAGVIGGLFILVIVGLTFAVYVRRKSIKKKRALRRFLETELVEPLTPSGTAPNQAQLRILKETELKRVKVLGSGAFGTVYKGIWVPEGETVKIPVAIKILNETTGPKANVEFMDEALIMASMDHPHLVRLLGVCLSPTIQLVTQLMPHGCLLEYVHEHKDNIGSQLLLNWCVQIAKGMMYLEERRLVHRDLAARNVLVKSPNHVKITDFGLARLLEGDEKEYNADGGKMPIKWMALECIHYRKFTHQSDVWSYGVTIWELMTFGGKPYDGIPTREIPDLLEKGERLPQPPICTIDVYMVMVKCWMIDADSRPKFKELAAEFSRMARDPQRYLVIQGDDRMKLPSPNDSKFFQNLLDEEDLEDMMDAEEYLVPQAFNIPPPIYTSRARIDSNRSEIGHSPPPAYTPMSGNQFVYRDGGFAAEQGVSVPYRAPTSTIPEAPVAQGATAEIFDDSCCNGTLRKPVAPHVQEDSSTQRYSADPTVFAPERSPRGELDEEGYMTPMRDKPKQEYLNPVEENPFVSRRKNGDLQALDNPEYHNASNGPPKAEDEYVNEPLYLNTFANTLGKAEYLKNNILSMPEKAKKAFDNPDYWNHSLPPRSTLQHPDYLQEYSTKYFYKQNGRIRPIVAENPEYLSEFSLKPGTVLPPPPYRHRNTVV
T28 sequence (O43293 whole entry): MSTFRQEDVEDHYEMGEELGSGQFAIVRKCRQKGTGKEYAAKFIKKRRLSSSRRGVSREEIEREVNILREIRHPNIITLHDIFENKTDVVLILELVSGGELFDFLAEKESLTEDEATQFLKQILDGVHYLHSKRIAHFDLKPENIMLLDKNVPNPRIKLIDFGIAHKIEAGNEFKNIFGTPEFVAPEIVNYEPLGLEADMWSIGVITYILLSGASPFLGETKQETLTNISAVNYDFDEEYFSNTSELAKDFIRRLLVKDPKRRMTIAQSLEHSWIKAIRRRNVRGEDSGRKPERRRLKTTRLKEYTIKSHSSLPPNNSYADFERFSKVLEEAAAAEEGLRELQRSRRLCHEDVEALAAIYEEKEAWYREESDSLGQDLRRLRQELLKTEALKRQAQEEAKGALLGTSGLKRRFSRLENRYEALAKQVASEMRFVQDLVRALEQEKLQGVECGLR
T2 sequence (P80192 whole entry): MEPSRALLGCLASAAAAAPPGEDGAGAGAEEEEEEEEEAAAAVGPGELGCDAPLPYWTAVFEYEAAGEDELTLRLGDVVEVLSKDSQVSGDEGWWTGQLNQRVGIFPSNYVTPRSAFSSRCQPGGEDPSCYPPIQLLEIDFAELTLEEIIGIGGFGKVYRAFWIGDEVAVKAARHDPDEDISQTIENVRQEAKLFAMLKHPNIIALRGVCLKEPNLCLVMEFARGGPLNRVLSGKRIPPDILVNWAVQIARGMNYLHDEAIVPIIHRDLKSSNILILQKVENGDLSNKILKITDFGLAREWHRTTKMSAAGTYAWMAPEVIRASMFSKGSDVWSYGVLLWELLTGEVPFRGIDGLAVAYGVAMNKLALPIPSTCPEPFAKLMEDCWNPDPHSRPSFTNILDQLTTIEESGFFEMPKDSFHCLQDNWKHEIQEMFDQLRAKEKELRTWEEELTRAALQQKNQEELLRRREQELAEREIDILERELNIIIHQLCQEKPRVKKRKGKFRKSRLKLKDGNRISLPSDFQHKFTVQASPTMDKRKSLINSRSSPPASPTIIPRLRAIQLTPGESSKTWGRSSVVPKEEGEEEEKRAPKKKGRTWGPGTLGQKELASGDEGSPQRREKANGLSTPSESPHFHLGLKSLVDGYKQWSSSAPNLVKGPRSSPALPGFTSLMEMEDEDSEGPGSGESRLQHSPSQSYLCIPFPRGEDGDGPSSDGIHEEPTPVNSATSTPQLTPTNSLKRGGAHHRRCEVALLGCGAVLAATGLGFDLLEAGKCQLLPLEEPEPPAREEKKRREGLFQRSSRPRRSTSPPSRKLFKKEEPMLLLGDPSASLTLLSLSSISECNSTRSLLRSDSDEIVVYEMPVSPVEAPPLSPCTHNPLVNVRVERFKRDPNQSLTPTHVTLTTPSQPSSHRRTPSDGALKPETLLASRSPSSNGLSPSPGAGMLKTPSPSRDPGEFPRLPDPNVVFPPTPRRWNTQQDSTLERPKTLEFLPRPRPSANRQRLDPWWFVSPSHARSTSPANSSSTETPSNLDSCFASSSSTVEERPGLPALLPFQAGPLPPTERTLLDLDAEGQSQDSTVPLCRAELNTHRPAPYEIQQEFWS
T32 sequence (P07948 whole entry): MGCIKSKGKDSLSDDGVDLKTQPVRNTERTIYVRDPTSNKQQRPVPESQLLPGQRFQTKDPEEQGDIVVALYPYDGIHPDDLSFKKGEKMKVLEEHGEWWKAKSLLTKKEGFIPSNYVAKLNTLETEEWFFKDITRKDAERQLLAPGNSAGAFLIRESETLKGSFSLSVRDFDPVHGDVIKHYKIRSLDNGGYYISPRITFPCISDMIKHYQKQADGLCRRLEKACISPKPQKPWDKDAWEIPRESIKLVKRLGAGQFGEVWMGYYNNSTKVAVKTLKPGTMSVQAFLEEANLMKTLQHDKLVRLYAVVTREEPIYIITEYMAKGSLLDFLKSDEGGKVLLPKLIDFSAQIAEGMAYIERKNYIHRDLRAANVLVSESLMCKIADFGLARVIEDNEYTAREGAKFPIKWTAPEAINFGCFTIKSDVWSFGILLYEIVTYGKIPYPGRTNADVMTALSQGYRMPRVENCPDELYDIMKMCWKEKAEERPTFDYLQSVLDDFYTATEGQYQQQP
T4 sequence (P54759 577-998 limits assumed): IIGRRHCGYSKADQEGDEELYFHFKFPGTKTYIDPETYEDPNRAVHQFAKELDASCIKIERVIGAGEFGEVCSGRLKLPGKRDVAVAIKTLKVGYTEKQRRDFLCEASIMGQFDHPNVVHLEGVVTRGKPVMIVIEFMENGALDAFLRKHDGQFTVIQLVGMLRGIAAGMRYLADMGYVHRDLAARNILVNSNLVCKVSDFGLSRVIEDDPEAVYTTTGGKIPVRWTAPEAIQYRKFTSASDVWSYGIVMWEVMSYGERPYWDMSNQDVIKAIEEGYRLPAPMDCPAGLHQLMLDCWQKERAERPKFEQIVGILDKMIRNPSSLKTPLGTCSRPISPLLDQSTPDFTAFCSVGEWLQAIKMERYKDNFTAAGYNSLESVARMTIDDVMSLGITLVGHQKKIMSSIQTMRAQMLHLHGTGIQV

Avg POC (ROCK-II): 105 POC | Avg POC (MLK1): 106 POC | Avg POC (NEK7): 123 POC | Avg POC (EphA7): 107 POC | Avg POC (AMPK(A1/B1/G1)): 134.5 POC | Avg POC (Fer): 122 POC | Avg POC (MELK): 135.5 POC | Avg POC (PDK1): 117.5 POC | Avg POC (PTK6): 114.5 POC | Avg POC (HIPK1): 119 POC | Avg POC (FGFR1): 116 POC | Avg POC (TAK1): 110.5 POC | Avg POC (MAP3K5): 112.5 POC | Avg POC (ALK): 114.5 POC | Avg POC (KIT): 93.5 POC | Avg POC (VRK2): 110 POC | Avg POC (PKCzeta): 123 POC | Avg POC (PKCdelta): 111.5 POC | Avg POC (IRAK1): 125 POC | Avg POC (ZAP-70): 118 POC | Avg POC (MST2): 115 POC | Avg POC (Plk2): 104.5 POC | Avg POC (NLK): 113.5 POC | Avg POC (PKCgamma): 100.5 POC | Avg POC (Rse): 120.5 POC | Avg POC (Rsk4): 126.5 POC | Avg POC (ErbB4): 118 POC | Avg POC (DAPK3): 120 POC | Avg POC (MAPKAP-K2): 128 POC | Avg POC (Haspin): 137.5 POC | Avg POC (IR Activated): 102.5 POC | Avg POC (Lyn): 112 POC
SMILES: COCc1ccc2cccc(NC(=O)Nc3c(C)c(-c4cnn(C)c4)nn3-c3ccccc3)c2c1 [Example 16, 1-(1′,4-dimethyl-1-phenyl-1H,1′H-[3,4′-bipyrazol]-5-yl)-3-(7-(methoxymethyl)naphthalen-1-yl)urea]

— patent publication US9546156B2, “N-bicyclic aryl,N'-pyrazolyl urea, thiourea, guanidine cyanoguanidine compounds as TrkA kinase inhibitors” (Array BioPharma Inc., priority 2012, dated 2017)
